How the values were obtained:
15-PGDH/HPGD = biological target: T1, 15-PGDH/HPGD (Homo sapiens, UniProt P15428); assay: hPGDH inhibitor screening biochemical assay; details: 10 nM enzyme, fluorescence ex/em 340/485 nm
T1 construct: purchased R&D System 5660-DH
T1 sequence (P15428 1-266): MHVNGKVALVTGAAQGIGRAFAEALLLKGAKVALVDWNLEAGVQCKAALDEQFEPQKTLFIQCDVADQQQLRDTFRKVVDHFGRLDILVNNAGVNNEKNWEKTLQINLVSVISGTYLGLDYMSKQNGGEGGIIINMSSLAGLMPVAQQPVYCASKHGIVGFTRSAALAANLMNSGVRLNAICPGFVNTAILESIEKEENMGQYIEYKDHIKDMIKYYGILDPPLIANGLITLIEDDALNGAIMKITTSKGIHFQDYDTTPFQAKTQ
Protocol: A hydroxyprostaglandin dehydrogenase inhibition screening biochemical assay can be performed to assess the synthesized inhibitors provided herein. Provided herein is an exemplary biochemical assay for hPGDH inhibitor screening.
The in vitro biochemical assay can be performed in white, 384 plates in total 20 μl reaction volume consisting of 10 nM of 15-PGDH/HPGD (R&D System #5660-DH), 15 µM Prostaglandin E2 (Sigma, Cat #P5640-10MG) and 0.25 mM β-Nicotinamide adenine dinucleotide sodium salt (Sigma, Cat #N0632-5G) made in reaction buffer (50 mM Tris-HCl, pH 7.5, 0.01% Tween 20) at 10-point dose response curve for test/tool compounds. Briefly, 5 μl (4×) of compounds solution and 5 μl (final concentration, 10 nM) of enzyme solution is added to white 384 well plates and incubated for 10 mins at 37° C. 5 μl (4×) of Prostaglandin E2 and 5 μl (4×) of β-Nicotinamide adenine dinucleotide sodium salt is added to the wells and incubated for 10 mins at room temperature. Fluorescence is recorded at ex/em=340 nm/485 nm.

A549 = A549 EC50 (cell assay, no method described); assay type: cell-based

IC50 (15-PGDH/HPGD) [nM]	EC50 (A549; Homo sapiens, A549, A549) [nM]	EC50 (A549; A549) [nM]	SMILES
< 100	100 to 1000		CCOC(=O)Nc1cncc(-n2ncc3cc([S+]([O-])C4CCC(F)(F)CC4)cnc32)c1 (stereo not shown) [Compound 39, Ethyl N-[5-[5-(4,4-difluorocyclohexyl)sulfinylpyrazolo[3,4-b]pyridin-1-yl]-3-pyridyl]carbamate]
< 100	≥ 1000		O=S(=O)(c1cnc2c(cnn2-c2cc(F)cc(-c3nnc[nH]3)c2)c1)C1CCCC1 [Compound 32]
< 100	100 to 1000		[O-][S+](CC1CCC1)c1cnc2c(cnn2-c2ccc(-c3nnc[nH]3)cc2)c1 (stereo not shown) [Compound 47]
< 100		100 to 1000	COCCC[S+]([O-])c1cnc2c(cnn2-c2cccc(-c3nnc[nH]3)c2)c1 (stereo not shown) [Compound 29]
100 to 1000	≥ 1000		COC1CC([S+]([O-])c2cnc3c(cnn3-c3cccc(-c4nnc[nH]4)c3)c2)C1 (single isomer, unassigned) [Compound 105A]
100 to 1000	≥ 1000		O=S(=O)(c1cnc2c(cnn2-c2cccc(-c3nnc[nH]3)c2)c1)C1CC(F)(F)C1 [Compound 6]
100 to 1000		≥ 1000	Cc1nnc(-c2cccc(-n3ncc4cc([S+]([O-])C5CC(F)(F)C5)cnc43)c2)[nH]1 (stereo not shown) [Compound 97B]
100 to 1000			[O-][S+](c1cnc2c(cnn2-c2cccc(-c3nnc[nH]3)c2)c1)C1CC(F)(F)C1 (single isomer, unassigned) [Compound 7A]
< 100		100 to 1000	O=C(O)c1ccc(-n2ncc3cc([S+]([O-])C4CC(F)(F)C4)cnc32)cc1 (single isomer, unassigned) [Compound 10B]
< 100	< 100		CC(C)CC[S+]([O-])c1cnc2c(ccn2-c2cc(F)cc(-c3nnc[nH]3)c2)c1 (single isomer, unassigned) [Compound 52B]
100 to 1000			Cc1nnc(-c2cccc(-n3ncc4cc([S+]([O-])C5CCC5)cnc43)c2)[nH]1 (stereo not shown) [Compound 92A]
≥ 1000			[O-][S+](c1cnc2c(cnn2-c2cccc(-c3nnc[nH]3)c2)c1)C1CCC(F)(F)C1 (single isomer, unassigned) [Compound 8A]
< 100	≥ 1000		COCCC[S+]([O-])c1cnc2c(cnn2-c2ccc(N3CCOC3=O)nc2)c1 (single isomer, unassigned) [Compound 115A]
< 100		100 to 1000	CC(C)CC[S+]([O-])c1cnc2c(ccn2-c2cncc(-c3nnc[nH]3)c2)c1 (single isomer, unassigned) [Compound 53A]
< 100		≥ 1000	O=C(O)c1ccc(-n2ccc3cc([S+]([O-])C4CCC4)cnc32)cc1 (single isomer, unassigned) [Compound 49A]
< 100	< 100		O=S(=O)(c1cnc2c(cnn2-c2cc(Cl)cc(-c3nnc[nH]3)c2)c1)C1CCCC1 [Compound 31]
< 100	100 to 1000		CC(C)OC[S+]([O-])c1cnc2c(cnn2-c2cccc(-c3nnc[nH]3)c2)c1 (single isomer, unassigned) [Compound 2B, 1-(3-(4H-1,2,4-triazol-3-yl)phenyl)-5-((isopropoxymethyl)sulfinyl)-1H-pyrazolo[3,4-b]pyridine]
< 100	100 to 1000		COCCC[S+]([O-])c1cnc2c(ccn2-c2cccc(-c3nnc[nH]3)c2)c1 (racemic) [Compound 55]
< 100		≥ 1000	[O-][S+](c1cnc2c(cnn2-c2cccc(-c3nnc[nH]3)c2)c1)C1C[C@@H]2C[C@@H]2C1 (single isomer, unassigned) [Compound 123C]
< 100			[O-][S+](c1cnc2c(cnn2-c2ccc3nc(N4CCOCC4)nn3c2)c1)C1CC(F)(F)C1 (stereo not shown) [Compound 117A]
< 100	< 100		COCCC[S+]([O-])c1cnc2c(ccn2-c2cccc(-c3nnc[nH]3)c2)n1 (stereo not shown) [Compound 103B]
< 100			CC(C)CC[S+]([O-])c1cnc2c(cnn2-c2ccc(CCCC(=O)O)c(F)c2)c1 (stereo not shown) [Compound 127B]

IC50 (15-PGDH/HPGD) [nM]	EC50 (A549; Homo sapiens, A549, A549) [nM]	EC50 (A549; A549) [nM]	SMILES
< 100			COCC(C)(C)C[S+]([O-])c1cnc2c(cnn2-c2cccc(-c3nnc[nH]3)c2)c1 (single isomer, unassigned) [Compound 126B]
≥ 1000			COc1cc(-c2cccc(-n3ncc4cc([S+]([O-])C5CCC5)cnc43)c2)ccn1 (single isomer, unassigned) [Compound 93B]
100 to 1000			[O-][S+](c1cnc2c(cnn2-c2cccc(-c3ccc(N4CCOCC4)nc3)c2)c1)C1CCC1 (stereo not shown) [Compound 95B]
100 to 1000			COCCC[S+]([O-])c1cnc2c(ccn2-c2cccc(-c3nnc[nH]3)c2)n1 (stereo not shown) [Compound 103A]
≥ 1000			COCC(C)(C)C[S+]([O-])c1cnc2c(cnn2-c2cccc(-c3nnc[nH]3)c2)c1 (single isomer, unassigned) [Compound 126A]
< 100			CCOC(=O)Nc1cncc(-n2ccc3cc([S+]([O-])C4CC4)cnc32)c1 (stereo not shown) [Compound 67]
100 to 1000			COc1ccc(-c2cccc(-n3ncc4cc([S+]([O-])C5CCC5)cnc43)c2)cn1 (stereo not shown) [Compound 90B]
100 to 1000			CC(C)CC[S+]([O-])c1cnc2c(cnn2-c2ccc(CCCC(=O)O)c(F)c2)c1 (stereo not shown) [Compound 127A]
100 to 1000			O=c1cc(-c2cccc(-n3ncc4cc([S+]([O-])C5CCC5)cnc43)c2)cc[nH]1 (stereo not shown) [Compound 94B]
< 100			[O-][S+](c1cnc2c(cnn2-c2cccc(-c3ccnc(N4CCOCC4)c3)c2)c1)C1CCC1 (stereo not shown) [Compound 91A]
≥ 1000			[O-][S+](c1cnc2c(cnn2-c2cccc(-c3ccc(O)nc3)c2)c1)C1CCC(F)(F)C1 (single isomer, unassigned) [Compound 5B]
100 to 1000			[O-][S+](c1cnc2c(cnn2-c2cccc(-c3ccnc(N4CCOCC4)c3)c2)c1)C1CCC1 (stereo not shown) [Compound 91B]
< 100			[O-][S+](c1cnc2c(cnn2-c2cccc(-c3ccc(N4CCOCC4)nc3)c2)c1)C1CCC1 (stereo not shown) [Compound 95A]
≥ 1000			O=S(=O)(c1cnc2c(cnn2-c2ccc(-c3nnc[nH]3)cc2)c1)C1CCOCC1 [Compound 37]
100 to 1000			CC(C)OC[S+]([O-])c1cnc2c(cnn2-c2cccc(-c3nnc[nH]3)c2)c1 (single isomer, unassigned) [Compound 2A, 1-(3-(4H-1,2,4-triazol-3-yl)phenyl)-5-((isopropoxymethyl)sulfinyl)-1H-pyrazolo[3,4-b]pyridine]
100 to 1000			[O-][S+](c1cnc2c(cnn2-c2ccc3nc(N4CCOCC4)nn3c2)c1)C1CC(F)(F)C1 (stereo not shown) [Compound 117B]
< 100			CCOC(=O)Nc1cncc(-n2ncc3cc(C(=O)CC4CCC4)cnc32)c1 [Compound 42]
< 100			[O-][S+](c1cnc2c(cnn2-c2cccc(-c3ccc(O)nc3)c2)c1)C1CCC(F)(F)C1 (single isomer, unassigned) [Compound 5D]
100 to 1000			CC(=O)Nc1cccc(-c2cncc(-n3ncc4cc([S+]([O-])C5CCCC5)cnc43)c2)c1 (single isomer, unassigned) [Compound 14B]
100 to 1000			[O-][S+](c1cnc2c(cnn2-c2cccc(-c3nnc[nH]3)c2)c1)C1CCC(F)(F)C1 (single isomer, unassigned) [Compound 8B]
	≥ 1000		CC1(O)CC([S+]([O-])c2cnc3c(cnn3-c3cccc(-c4nnc[nH]4)c3)c2)C1 (stereo not shown) [Compound 107A]
≥ 1000			CCCC[S+]([O-])c1cnc2c(cnn2-c2cc(F)cc(NC(=O)OCC)c2)c1 (stereo not shown) [Compound 27B]

Source: patent US20260226066A1, “PGDH INHIBITORS AND METHODS OF MAKING AND USING” (Epirium Bio Inc., priority 2023, published 2026)
